Source: patent EP3262942A1, “SELENODIARYLS FOR USE AS MICROBICIDE OR AS MEDICINE” (Evonik Degussa GmbH, priority 2016, dated 2018)

Columns and labels:
P. infestans = assay: microbe, parasite or virus in culture; format: cell-based, Phytophthora infestans; conditions: Phytophthora infestans, 24 h, read-out: Aktivität gegenüber P. infestans
M. grisea = format: cell-based, Magnaporthe grisea; conditions: medium (H2O or CM) not stated
Setaria italica = assay: Crop plant growth test, seeds on filter discs, 4 days, visual evaluation; format: in vivo
Outline: (§1)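 Compounds dried from DMSO onto filter discs; about 12 seeds per well with 200 µl sterile tap water, incubated 4 days in a humid chamber under 16 h light/8 h dark. Visual scoring: + means at least 75 % growth inhibition versus control, − means less than 75 %.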

Lepidium sativum = assay: as above; format: in vivo
Outline: as §1

Botrytis cinerea = assay: microbe, parasite or virus in culture; format: cell-based; conditions: for inhibition of growth at 5 µg/mL / inhibition of growth at 10 µg/mL / inhibition of growth at 25 µg/mL / inhibition of growth at 50 µg/mL: Botrytis cinerea, 24 h, read-out: Aktivität gegenüber B. cinerea
Paecilomyces variotii = assay: Growth test in microtiter plates, HA medium, 24 h, visual evaluation; format: cell-based; parameters: key: +: kein Wachstum im Vergleich zur Wachstumskontrolle; -: Wachstum wie Wachstumskontrolle
M. grisea CM = assay: microbe, parasite or virus in culture; format: cell-based, Magnaporthe grisea; conditions: Pyricularia grisea, 24 h, read-out: Aktivität gegenüber M. grisea CM
M. grisea H2O = assay: microbe, parasite or virus in culture; format: cell-based, Magnaporthe grisea; conditions: Pyricularia grisea, H2O, 24 h, read-out: Aktivität gegenüber M. grisea H2O
Mucor miehei = assay: Growth test in microtiter plates, HA medium, 24 h, visual evaluation; format: cell-based; parameters: key to Aktivität gegenüber M. miehei: +: kein Wachstum im Vergleich zur Wachstumskontrolle; -: Wachstum wie Wachstumskontrolle
Penicillium notatum = assay: as above; format: cell-based; parameters: key: +: kein Wachstum im Vergleich zur Wachstumskontrolle; -: Wachstum wie Wachstumskontrolle
Candida albicans = assay: as above; format: cell-based; parameters: key: +: kein Wachstum im Vergleich zur Wachstumskontrolle; -: Wachstum wie Wachstumskontrolle
[1] = tested on: alle getesteten Pathogene; format: cell-based; conditions: 5-50 µg/mL

Row | Compound | inhibition of growth at 5 µg/mL (P. infestans) [%] | inhibition of growth at 10 µg/mL (P. infestans) [%] | inhibition of growth at 25 µg/mL (P. infestans) [%] | inhibition of growth at 50 µg/mL (P. infestans) [%] | Aktivität gegenüber Nutzpflanzen: S. italica (Setaria italica; 10µg/R) | Aktivität gegenüber Nutzpflanzen: S. italica (Setaria italica; 20µg/R) | Aktivität gegenüber Nutzpflanzen: S. italica (Setaria italica; 50µg/R) | Aktivität gegenüber Nutzpflanzen: L. sativum (Lepidium sativum; 10µg/R) | Aktivität gegenüber Nutzpflanzen: L. sativum (Lepidium sativum; 20µg/R) | Aktivität gegenüber Nutzpflanzen: L. sativum (Lepidium sativum; 50µg/R) | inhibition of growth at 5 µg/mL (Botrytis cinerea) [%] | inhibition of growth at 10 µg/mL (Botrytis cinerea) [%] | inhibition of growth at 25 µg/mL (Botrytis cinerea) [%] | inhibition of growth at 50 µg/mL (Botrytis cinerea) [%] | Aktivität gegenüber P. variotii (Paecilomyces variotii; 10µg/mL) | Aktivität gegenüber P. variotii (Paecilomyces variotii; 50µg/mL) | inhibition of growth at 5 µg/mL (M. grisea CM) [%] | inhibition of growth at 10 µg/mL (M. grisea CM) [%] | inhibition of growth at 25 µg/mL (M. grisea CM) [%] | inhibition of growth at 50 µg/mL (M. grisea CM) [%] | further results
1 | Cc1cc(C)c(O)c([Se]c2cc(C)cc(C)c2O)c1 [Verbindung 12, Bis(3,5-dimethyl-2-hydroxyphenyl)selen] | 0 to 25 | > 75 | > 75 | > 75 | - (weniger als 75 % Wachstumshemmung im Vergleich zur Kontrolle) | - (weniger als 75 % Wachstumshemmung im Vergleich zur Kontrolle) | - (weniger als 75 % Wachstumshemmung im Vergleich zur Kontrolle) | - (weniger als 75 % Wachstumshemmung im Vergleich zur Kontrolle) | - (weniger als 75 % Wachstumshemmung im Vergleich zur Kontrolle) | - (weniger als 75 % Wachstumshemmung im Vergleich zur Kontrolle) | 0 to 25 | 0 to 25 | 0 to 25 | 0 to 25 | - | - | > 75 | > 75 | > 75 | > 75 | Aktivität gegenüber M. grisea (M. grisea): hohe Aktivität; inhibition of growth at 5 µg/mL (M. grisea H2O): 0 to 25%; inhibition of growth at 10 µg/mL (M. grisea H2O): 0 to 25%; inhibition of growth at 25 µg/mL (M. grisea H2O): 0 to 25%; inhibition of growth at 50 µg/mL (M. grisea H2O): 0 to 25%; Aktivität gegenüber M. miehei (Mucor miehei; 10µg/mL): -; Aktivität gegenüber M. miehei (Mucor miehei; 50µg/mL): -; Aktivität gegenüber P. notatum (Penicillium notatum; 10µg/mL): -; Aktivität gegenüber P. notatum (Penicillium notatum; 50µg/mL): -; Aktivität gegenüber C. albicans (Candida albicans; 10µg/mL): -; Aktivität gegenüber C. albicans (Candida albicans; 50µg/mL): -
2 | Cc1cc(C(C)(C)C)cc([Se]c2cc(C(C)(C)C)cc(C)c2O)c1O [Verbindung 13, Di(5-tert-butyl-2-hydroxy-3-methylphenyl)selen] | 0 to 25 | 0 to 25 | 0 to 25 | 0 to 25 | - (weniger als 75 % Wachstumshemmung im Vergleich zur Kontrolle) | - (weniger als 75 % Wachstumshemmung im Vergleich zur Kontrolle) | - (weniger als 75 % Wachstumshemmung im Vergleich zur Kontrolle) | - (weniger als 75 % Wachstumshemmung im Vergleich zur Kontrolle) | - (weniger als 75 % Wachstumshemmung im Vergleich zur Kontrolle) | - (weniger als 75 % Wachstumshemmung im Vergleich zur Kontrolle) | 0 to 25 | 0 to 25 | 0 to 25 | 0 to 25 | - | - | > 75 | > 75 | > 75 | > 75 | Aktivität gegenüber M. grisea (M. grisea): hohe Aktivität; inhibition of growth at 5 µg/mL (M. grisea H2O): > 75%; inhibition of growth at 10 µg/mL (M. grisea H2O): > 75%; inhibition of growth at 25 µg/mL (M. grisea H2O): > 75%; inhibition of growth at 50 µg/mL (M. grisea H2O): > 75%; Aktivität gegenüber M. miehei (Mucor miehei; 10µg/mL): -; Aktivität gegenüber M. miehei (Mucor miehei; 50µg/mL): -; Aktivität gegenüber P. notatum (Penicillium notatum; 10µg/mL): -; Aktivität gegenüber P. notatum (Penicillium notatum; 50µg/mL): -; Aktivität gegenüber C. albicans (Candida albicans; 10µg/mL): -; Aktivität gegenüber C. albicans (Candida albicans; 50µg/mL): -
3 | CCc1cc([Se]c2cc(CC)cc(C(C)(C)C)c2O)c(O)c(C(C)(C)C)c1 [Verbindung 15, Bis(3-tert-butyl-5-ethyl-2-hydroxyphenyl)selen] | 0 to 25 | 0 to 25 | 0 to 25 | 0 to 25 | - (weniger als 75 % Wachstumshemmung im Vergleich zur Kontrolle) | - (weniger als 75 % Wachstumshemmung im Vergleich zur Kontrolle) | - (weniger als 75 % Wachstumshemmung im Vergleich zur Kontrolle) | - (weniger als 75 % Wachstumshemmung im Vergleich zur Kontrolle) | - (weniger als 75 % Wachstumshemmung im Vergleich zur Kontrolle) | - (weniger als 75 % Wachstumshemmung im Vergleich zur Kontrolle) | 0 to 25 | 0 to 25 | 0 to 25 | 0 to 25 | - | - | 0 to 25 | 0 to 25 | 0 to 25 | 0 to 25 | Aktivität im Wachstums- und Keimungshemmungstest gegen die getesteten Pathogene [1]: weder im Wachstums- noch im Keimungshemmungstest im verwendeten Konzentrationsbereich eine entsprechende Aktivität; inhibition of growth at 5 µg/mL (M. grisea H2O): 0 to 25%; inhibition of growth at 10 µg/mL (M. grisea H2O): 0 to 25%; inhibition of growth at 25 µg/mL (M. grisea H2O): 0 to 25%; inhibition of growth at 50 µg/mL (M. grisea H2O): 0 to 25%; Aktivität gegenüber M. miehei (Mucor miehei; 10µg/mL): -; Aktivität gegenüber M. miehei (Mucor miehei; 50µg/mL): -; Aktivität gegenüber P. notatum (Penicillium notatum; 10µg/mL): -; Aktivität gegenüber P. notatum (Penicillium notatum; 50µg/mL): -; Aktivität gegenüber C. albicans (Candida albicans; 10µg/mL): -; Aktivität gegenüber C. albicans (Candida albicans; 50µg/mL): -
4 | Oc1c(Cl)cc(F)cc1[Se]c1cc(F)cc(Cl)c1O [Verbindung 24, Bis(3-chlor-5-fluor-2-hydroxyphenyl)selen] | > 75 | > 75 | > 75 | > 75 | - (weniger als 75 % Wachstumshemmung im Vergleich zur Kontrolle) | + (mind. 75 % Wachstumshemmung im Vergleich zur Kontrolle) | - (weniger als 75 % Wachstumshemmung im Vergleich zur Kontrolle) | - (weniger als 75 % Wachstumshemmung im Vergleich zur Kontrolle) | + (mind. 75 % Wachstumshemmung im Vergleich zur Kontrolle) | - (weniger als 75 % Wachstumshemmung im Vergleich zur Kontrolle) | > 75 | > 75 | > 75 | > 75 | + | - | > 75 | > 75 | > 75 | > 75 | Effekt auf S. italica (Setaria italica; […]): deutlichen negativen Effekt; Effekt auf L. sativum (Lepidium sativum; […]): deutlichen negativen Effekt; mikrobizide Wirksamkeit gegenüber B. cinerea (Botrytis cinerea): mikrobizide Wirksamkeit; Aktivität im Wachstums- und Keimungshemmungstest gegen die getesteten Pathogene [1]: durchgehende Aktivität gegen alle Pathogene; inhibition of growth at 5 µg/mL (M. grisea H2O): > 75%; inhibition of growth at 10 µg/mL (M. grisea H2O): > 75%; inhibition of growth at 25 µg/mL (M. grisea H2O): > 75%; inhibition of growth at 50 µg/mL (M. grisea H2O): > 75%; Aktivität gegenüber M. miehei (Mucor miehei; 10µg/mL): +; Aktivität gegenüber M. miehei (Mucor miehei; 50µg/mL): +; Aktivität gegenüber P. notatum (Penicillium notatum; 10µg/mL): +; Aktivität gegenüber P. notatum (Penicillium notatum; 50µg/mL): +; Aktivität gegenüber C. albicans (Candida albicans; 10µg/mL): +; Aktivität gegenüber C. albicans (Candida albicans; 50µg/mL): +
